pIC50: −log10 of the molar value.
Tests used:
SK-Mel-103 = assay: Suppression of proliferation / senescence induction in melanoma line; type: cell-based; conditions: Homo sapiens
Source text: (§1) 260 analogs of N77A7 were selected from several commercially available libraries of small molecules based on the structural similarities with N77A7. The compounds were screened for the ability to permanently suppress proliferation and induce senescence in cells from melanoma lines SK-Mel-19 and SK-Mel-103. Based on the above-described screening procedure, seven small molecules were identified as having IC50 values lower than that of N77A7.

SK-Mel-19 = assay: as above; type: cell-based; conditions: Homo sapiens, SK-MEL19
Source text: as §1

HO15.19-Vector cells = assay: Cell cycle distribution by FACS; type: cell-based, rat; conditions: 3 μM
[1] = system: HO15.19 cells reconstituted with exogenous C-MYC; assay: Inhibition of C-MYC-dependent proliferation, cell cycle distribution by FACS; type: cell-based, rat; conditions: 3 μM
Experimental: In parallel, […] was evaluated for the ability to inhibit C-MYC-dependent proliferation in HO15.19 cells reconstituted with exogenous C-MYC. HO15.19 cells are the only cell line that is capable of continuous proliferation in the absence of any MYC protein expression, a feature that makes this line a reference in the field.

SK-Mel-103 xenografts = assay: Preliminary in vivo testing CBL2.5-01-Ms-1, N77A7 in methylcellulose; parameters: species or system athymic nude mice; conditions: after a week of ip injection, prepared in methylcellulose
Source text: N77A7 was identified in a small molecule library screen for inhibitors of the N-myc oncoprotein, which is involved in the pathogenesis of the childhood tumor neuroblastoma. The molecule is also effective against c-myc, a family member of N-myc that is overexpressed or amplified in a wide variety of tumors, including melanoma. In vitro, the effects of N77A7 on melanoma cells (e.g., SK-Mel-103) closely reflect the effects of myc shRNA on the same cells. In order to determine whether this in vitro effect can translate into an in vivo anti-tumor effect, we tested 50 mg/kg N77A7 administered daily ip against SK-Mel-103 xenografts established in athymic nude mice. […]

Solubility remark = type: physicochemical; conditions: prepared in methylcellulose
melanoma cells (Mel-9) = assay: Stable-isotope tracing, 13C labeling of central metabolites; type: cell-based; conditions: 13C-glucose, 24 h, compared to control
Experimental: Cells were grown in 6-well plates, and the medium was replaced for the final 24 h of culture with the MEM medium described previously (Scott et al., JBC 286, 42626-34, 2011), containing 50% ^13C-labeled [U-^13C6] glucose or 50% ^13C-labeled [U-^13C5] glutamine] […] Metabolites were extracted and GC-MS analysis and calculation of ^13C labeling were performed as described (Scott et al., 2011). Metabolites were quantified on the basis of fragment ion intensities and standard curves derived from mixtures of standards run concurrently with samples, using the program Metaquant (B. Bunk et al., Bioinformatics 22, 2962-2965, 2006). On the graphs, the 13C labeling percentage is shown as average of to separate experiments (with error bars). Samples from cells treated by antimycon (“N77”), anti-MYC shRNA (“Myc”), nonspecific shRNA (“NS”) and the control treated only by DMSO are shown bars with distinct patterns.

For `CCN(CC)c1ccc(/C=N/NC(=O)Cn2nnc(-c3ccccc3)n2)c(O)c1` [Compound N77A7], the pIC50 (SK-Mel-103) was 5.52, the pIC50 (SK-Mel-19) was 5.52 and the “HO15.19-Vector G2” value (HO15.19-Vector cells; percent of cells in G2 phase) was 23.88%. The “HO15.19-Vector S” value (HO15.19-Vector cells; percent of cells in S phase) was 21.22%, the “HO15.19-C-MYC G2” value ([1]; percent of cells in G2 phase) was 15.39% and the “HO15.19-C-MYC S” value ([1]; percent of cells in S phase) was 34.88%. For the same compound, the peritonitis (SK-Mel-103 xenografts) was “severe peritonitis”, the solubility (Solubility remark) was “poorly soluble” and the “labeling via glucose of serine, glycine, pyruvate, lactate, TCA-cycle metabolites” value (melanoma cells (Mel-9)) was “lower”.

Source: patent US9387213B2, “Small molecules inhibiting oncoprotein Myc” (Health Research, Inc., priority 2012, dated 2016)
